# Test results reported in ChEMBL document CHEMBL2029199, “Pyrazole and pyrimidine phenylacylsulfonamides as dual Bcl-2/Bcl-xL antagonists” (Bioorg Med Chem Lett, 2012).
# Activity calls are given as the source filed them. The calls are words filed in the database; no cut-off is given here.
# Tests used:
# [1] = biological target: Apoptosis regulator Bcl-2 (Homo sapiens, UniProt P10415); experiment: Inhibition of GST-tagged Bcl2 using [FAM]-IWIAQELRRIGDEFNAYY-NH2 as substrate after 60 mins by fluorescence polarization assay
# Sequence of Apoptosis regulator Bcl-2 (P10415 whole entry): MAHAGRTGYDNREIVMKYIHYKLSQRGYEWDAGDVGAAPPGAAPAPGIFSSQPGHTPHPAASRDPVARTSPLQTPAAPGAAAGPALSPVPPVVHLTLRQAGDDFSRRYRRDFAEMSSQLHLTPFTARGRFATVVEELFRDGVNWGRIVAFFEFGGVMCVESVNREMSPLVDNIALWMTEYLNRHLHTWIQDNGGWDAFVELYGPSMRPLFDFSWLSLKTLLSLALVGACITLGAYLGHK
# [2] = biological target: Bcl-2-like protein 1 (Homo sapiens, UniProt Q07817); experiment: Inhibition of biotin-labelled Bcl-xL using [FAM]-IWIAQELRRIGDEFNAYY-NH2 as substrate after 60 mins by FRET analysis
# Sequence of Bcl-2-like protein 1 (Q07817 whole entry): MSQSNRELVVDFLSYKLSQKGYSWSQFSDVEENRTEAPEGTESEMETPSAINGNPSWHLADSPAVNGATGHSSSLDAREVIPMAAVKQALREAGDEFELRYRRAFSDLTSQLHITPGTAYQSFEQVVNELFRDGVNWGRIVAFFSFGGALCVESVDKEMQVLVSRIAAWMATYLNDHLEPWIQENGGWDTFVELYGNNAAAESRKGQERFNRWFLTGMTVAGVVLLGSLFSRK
# [3] = Cytotoxicity against human SU-DHL4 cells after 72 hrs by firefly luciferase-based assay in presence of 2% fetal calf serum; type: functional, cell-based, SUD4; conditions: SU-DHL-4, 72 h
# [4] = system: MV4-11; experiment: Cytotoxicity against human MV411 cells after 72 hrs by firefly luciferase-based assay in presence of 2% fetal calf serum; type: functional, cell-based; conditions: MV4-11, 72 h
# [5] = system: MV4-11; experiment: Induction of cytochrome C release in mitochondria isolated from human MV411 cells at 0.1 uM after 40 mins by Western blotting analysis; type: functional
# [6] = system: MV4-11; experiment: Induction of BAK oligomerization in mitochondria isolated from human MV411 cells at 0.1 uM after 40 mins by Western blotting analysis; type: functional
# [7] = system: MV4-11; experiment: Induction of mitochondria depolarization in human MV411 cells at 3 uM after 7 hrs by flow cytometry; type: functional
# [8] = system: MV4-11; experiment: Induction of cytochrome C release in mitochondria isolated from human MV411 cells after 40 mins by Western blotting analysis; type: functional
# [9] = system: MV4-11; experiment: Induction of BAK oligomerization in mitochondria isolated from human MV411 cells after 40 mins by Western blotting analysis; type: functional
# [10] = system: MV4-11; experiment: Induction of BAK oligomerization in mitochondria isolated from human MV411 cells at 1 uM after 40 mins by Western blotting analysis; type: functional
# [11] = system: MV4-11; experiment: Cytotoxicity against human MV411 cells after 72 hrs by firefly luciferase-based assay in presence of 10% fetal calf serum; type: functional, cell-based; conditions: MV4-11, 72 h
IC50 [1],IC50 [2],Structure (SMILES),further results
1790 nM,48 nM,CCCCc1c(-c2ccc(C(=O)NS(=O)(=O)c3ccc4ccccc4c3)cc2C(=O)N2CCc3ccccc3C2)c(C(=O)OCC)nn1-c1ccc(OC)cc1,
170 nM,30 nM,CCCCc1c(-c2ccc(C(=O)NS(=O)(=O)c3ccc4ccccc4c3)cc2C(=O)N2CCc3ccccc3C2)c(C(=O)O)nn1-c1ccccc1,
,35 nM,CCCCc1c(-c2ccc(C(=O)NS(=O)(=O)c3ccc4ccccc4c3)cc2C(=O)N2CCc3ccccc3C2)c(CO)nn1-c1ccc(Oc2ccccc2)cc1,
7 nM,13 nM,CCCCc1c(-c2ccc(C(=O)NS(=O)(=O)c3ccc4ccccc4c3)cc2C(=O)N2CCc3ccccc3C2)c(CO)nn1-c1ccc(-c2ccccc2)cc1,
24 nM,7 nM,CCCCc1c(-c2ccc(C(=O)NS(=O)(=O)c3ccc4ccccc4c3)cc2C(=O)N2Cc3ccccc3C[C@H]2CN)c(CO)nn1-c1ccccc1,
14 nM,7 nM,CCCCc1c(-c2ccc(C(=O)NS(=O)(=O)c3ccc4ccccc4c3)cc2C(=O)N2CCc3ccccc3C2)c(CO)nn1-c1ccc(CCCO)cc1,
45 nM,26 nM,CCCCOc1ccc(-n2nc(CO)c(-c3ccc(C(=O)NS(=O)(=O)c4ccc5ccccc5c4)cc3C(=O)N3CCc4ccccc4C3)c2CCCC)cc1,IC50 [3]: 2490 nM; IC50 [4]: 1430 nM
700 nM,500 nM,CCCCN(CCCC)c1nccc(-c2ccc(C(=O)NS(=O)(=O)c3ccc4ccccc4c3)cc2C(=O)N2CCc3ccccc3C2)n1,
8 nM,18 nM,CCCCc1c(-c2ccc(C(=O)NS(=O)(=O)c3ccc4ccccc4c3)cc2C(=O)N2CCc3ccccc3C2)c(CO)nn1-c1ccc(Oc2cccc(Cl)c2)cc1,IC50 [3]: 2350 nM; IC50 [4]: 700 nM; Activity [5]: Active; Activity [6]: Active; Activity [7]: 25%
61 nM,11 nM,CCCCc1c(-c2ccc(C(=O)NS(=O)(=O)c3ccc4ccccc4c3)cc2C(=O)N2CCc3ccccc3C2)c(CO)nn1-c1ccccc1,
120 nM,480 nM,CCCCN(CCCC)c1nccc(-c2ccc(C(=O)NS(=O)(=O)c3ccc4cccc(Cl)c4c3)cc2C(=O)N2CCc3ccccc3C2)n1,
9 nM,9 nM,CCCN(CCC)c1ncc(Cl)c(-c2ccc(C(=O)NS(=O)(=O)c3ccc4cccc(Cl)c4c3)cc2C(=O)N2Cc3ccccc3C[C@H]2CO)n1,IC50 [3]: 3790 nM; IC50 [4]: 330 nM; Activity [8]: Dose-dependent effect; Activity [9]: Dose-dependent effect; Activity [7]: 25%
660 nM,42 nM,CCCCc1c(-c2ccc(C(=O)NS(=O)(=O)c3ccc4ccccc4c3)cc2C(=O)N2CCc3ccccc3C2)c(C(=O)OCC)nn1-c1ccccc1,
11 nM,,CCCCc1c(-c2ccc(C(=O)NS(=O)(=O)c3ccc4ccccc4c3)cc2C(=O)N2Cc3ccccc3C[C@H]2CO)c(CO)nn1-c1ccccc1,
140 nM,470 nM,CCCCc1c(-c2ccc(C(=O)NS(=O)(=O)c3ccc4ccccc4c3)cc2C(=O)N2CCc3ccccc3C2)c(C(=O)OCC)nn1-c1cccc(Oc2ccccc2)c1,
65 nM,120 nM,CCCCCS(=O)(=O)NC(=O)c1ccc(-c2c(CO)nn(-c3ccc(Oc4cccc(Cl)c4)cc3)c2CCCC)c(C(=O)N2CCc3ccccc3C2)c1,

IC50 [1],IC50 [2],Structure (SMILES),further results
140 nM,970 nM,CCCCN(CCCC)c1nccc(-c2ccc(C(=O)NS(=O)(=O)c3ccc4ccc(I)cc4c3)cc2C(=O)N2CCc3ccccc3C2)n1,
150 nM,250 nM,CCCN(CCC)c1nccc(-c2ccc(C(=O)NS(=O)(=O)c3ccc4ccccc4c3)cc2C(=O)N2CCc3ccccc3C2)n1,Activity [10]: inactive
160 nM,130 nM,CCCCN(CCCC)c1nccc(-c2ccc(C(=O)NS(=O)(=O)c3ccc4cccc(Cl)c4c3)cc2C(=O)N2Cc3ccccc3C[C@H]2CO)n1,
120 nM,710 nM,CCCCN(CCCC)c1nccc(-c2ccc(C(=O)NS(=O)(=O)c3ccc4c(c3)CCN4Cc3ccc(Cl)c(Cl)c3)cc2C(=O)N2CCc3ccccc3C2)n1,
4190 nM,640 nM,CCOC(=O)c1nn(-c2ccccc2)c(C)c1-c1ccc(C(=O)NS(=O)(=O)c2ccc3ccccc3c2)cc1C(=O)N1CCc2ccccc2C1,
6 nM,15 nM,CCCCc1c(-c2ccc(C(=O)NS(=O)(=O)c3ccc4cccc(Cl)c4c3)cc2C(=O)N2CCc3ccccc3C2)c(CO)nn1-c1ccc(Oc2cccc(Cl)c2)cc1,IC50 [3]: 2020 nM; IC50 [4]: 580 nM
15 nM,14 nM,CCCN(CCC)c1ncc(Cl)c(-c2ccc(C(=O)NS(=O)(=O)c3ccc4cccc(Cl)c4c3)cc2C(=O)N2Cc3ccccc3C[C@H]2CN)n1,IC50 [3]: 6640 nM; IC50 [4]: 330 nM; IC50 [11]: 730 nM; Activity [8]: Dose-dependent effect; Activity [9]: Dose-dependent effect; Activity [7]: 25%
71 nM,15 nM,CCCCc1c(-c2ccc(C(=O)NS(=O)(=O)c3ccc4ccccc4c3)cc2C(=O)N2CCc3ccccc3C2)c(CO)nn1-c1cccc(CO)c1,IC50 [3]: > 10000 nM; IC50 [4]: 5060 nM; Activity [5]: Active; Activity [6]: Active
160 nM,230 nM,CCCCN(CCCC)c1ncc(Cl)c(-c2ccc(C(=O)NS(=O)(=O)c3ccc4ccccc4c3)cc2C(=O)N2CCc3ccccc3C2)n1,
22 nM,35 nM,CCCCc1c(-c2ccc(C(=O)NS(=O)(=O)c3ccc4ccccc4c3)cc2C(=O)N2CCc3ccccc3C2)c(CO)nn1-c1ccc(Oc2ccc(Cl)cc2)cc1,
430 nM,160 nM,CCCCN(CCCC)c1nccc(-c2ccc(C(=O)NS(=O)(=O)c3ccc4ccccc4c3)cc2C(=O)N2Cc3ccccc3C[C@H]2CN)n1,
190 nM,140 nM,CCCCc1c(-c2ccc(C(=O)NS(=O)(=O)CC)cc2C(=O)N2CCc3ccccc3C2)c(CO)nn1-c1ccc(Oc2cccc(Cl)c2)cc1,
,55 nM,CCCCc1c(-c2ccc(C(=O)NS(=O)(=O)c3ccc4ccccc4c3)cc2C(=O)N2CCc3ccccc3C2)c(C(=O)OCC)nn1-c1ccc(Oc2ccccc2)cc1,
,6 nM,CCCCc1c(-c2ccc(C(=O)NS(=O)(=O)c3ccc4ccccc4c3)cc2C(=O)N2CCc3ccccc3C2)c(CO)nn1-c1ccc(CCO)cc1,
110 nM,120 nM,CCCCN(CCCC)c1ncc(C)c(-c2ccc(C(=O)NS(=O)(=O)c3ccc4ccccc4c3)cc2C(=O)N2CCc3ccccc3C2)n1,

Structure (SMILES),IC50 [1],IC50 [2],further results
CCCCc1c(-c2ccc(C(=O)NS(=O)(=O)CC[Si](C)(C)C)cc2C(=O)N2CCc3ccccc3C2)c(CO)nn1-c1ccccc1,190 nM,,
